pIC50: −log10 of the molar value. Like-named read-outs stand apart in the source and are kept apart here.

Usually pIC50 stands for the negative decadic logarithm of the IC50, by convention in mol/L. Usually GI50 stands for the concentration giving 50% growth inhibition.

The target in one experiment is His-GST-PARP7 (Homo sapiens (Human), UniProt Q7Z3E1). The experiment in a line: PARP7 biochemical assay. The note with it: read-out: PARP7 IC50.
Experiment [1] deals with NCI-H1373 (human lung adenocarcinoma) cells. Nature of the experiment: Cell proliferation assay (CellTiter-Glo), NCI-H1373. It counts as cell-based. The note with it: Homo sapiens, NCI-H1373, 144 h, read-out: NCI-H1373 GI50.
The test system of experiment [2] is HARA (human lung squamous cell carcinoma) cells. Nature of the experiment: Cell proliferation assay (CellTiter-Glo), HARA. It is filed as cell-based. The note with it: Homo sapiens, 144 h, read-out: HARA GI50. On the technique in general: ATP-based viability assays read luminescence as a measure of living cells.
Experiment [3] deals with CT26 (mouse colon adenocarcinoma) cells. Nature of the experiment: Cell proliferation assay (CellTiter-Glo), CT26. It counts as cell-based. The following applies: Mus musculus, CT26, 144 h, 6 days.
Another experiment addresses PARP2 (Homo sapiens (Human), UniProt Q9UGN5). Nature of the experiment: PARP2 biochemical assay.

Sequence of His-GST-PARP7 (Q7Z3E1 whole entry): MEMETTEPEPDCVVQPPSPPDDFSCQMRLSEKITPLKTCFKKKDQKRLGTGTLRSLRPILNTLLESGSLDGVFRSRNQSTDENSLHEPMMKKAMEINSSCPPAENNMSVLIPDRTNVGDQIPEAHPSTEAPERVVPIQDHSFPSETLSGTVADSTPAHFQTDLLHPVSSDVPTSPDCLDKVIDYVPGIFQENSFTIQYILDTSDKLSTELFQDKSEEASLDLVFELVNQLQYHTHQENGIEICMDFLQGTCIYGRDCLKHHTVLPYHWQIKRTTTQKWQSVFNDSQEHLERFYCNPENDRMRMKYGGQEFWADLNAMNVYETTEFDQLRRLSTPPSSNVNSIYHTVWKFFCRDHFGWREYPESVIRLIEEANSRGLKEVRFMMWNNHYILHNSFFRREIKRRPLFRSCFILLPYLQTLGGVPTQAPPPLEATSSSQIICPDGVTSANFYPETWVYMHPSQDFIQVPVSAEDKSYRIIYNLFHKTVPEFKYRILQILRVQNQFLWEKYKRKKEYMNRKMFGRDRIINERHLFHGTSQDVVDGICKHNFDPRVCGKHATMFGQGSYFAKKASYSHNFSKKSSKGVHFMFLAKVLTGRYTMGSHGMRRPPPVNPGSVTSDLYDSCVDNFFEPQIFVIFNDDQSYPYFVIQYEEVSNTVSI
Sequence of PARP2 (Q9UGN5 whole entry): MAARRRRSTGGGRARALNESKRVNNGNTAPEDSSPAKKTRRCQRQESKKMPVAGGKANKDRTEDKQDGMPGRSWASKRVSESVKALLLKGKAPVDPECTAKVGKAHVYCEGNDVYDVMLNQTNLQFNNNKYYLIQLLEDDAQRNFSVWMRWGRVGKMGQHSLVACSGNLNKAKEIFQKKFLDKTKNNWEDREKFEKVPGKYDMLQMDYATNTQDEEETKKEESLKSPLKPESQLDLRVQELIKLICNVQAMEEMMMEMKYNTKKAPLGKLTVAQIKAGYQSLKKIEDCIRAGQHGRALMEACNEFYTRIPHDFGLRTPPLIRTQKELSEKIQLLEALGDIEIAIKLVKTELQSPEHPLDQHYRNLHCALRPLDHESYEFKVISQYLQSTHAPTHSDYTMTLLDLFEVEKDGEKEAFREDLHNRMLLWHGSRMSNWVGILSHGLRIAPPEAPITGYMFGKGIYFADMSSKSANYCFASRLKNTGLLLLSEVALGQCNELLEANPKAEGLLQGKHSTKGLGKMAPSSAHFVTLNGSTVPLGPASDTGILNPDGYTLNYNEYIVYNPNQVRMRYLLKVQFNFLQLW

With `N#Cc1ccc(N2CCN(C(=O)c3cc(Cc4n[nH]c(=O)c5ccc(OC6CCC6)cc45)ccn3)CC2)nc1` [Example 179, 6-(4-(4-((7-Cyclobutoxy-4-oxo-3,4-dihydrophthalazin-1-yl)methyl)picolinoyl)piperazin-1-yl)nicotinonitrile], the pIC50 at His-GST-PARP7 is greater than 7.30. Further, the GI50 in experiment [1] (6 days, CellTiter-Glo) was less than 0.1 µM; in experiment [2] (6 days, CellTiter-Glo) it was greater than 5 µM; in experiment [3], greater than 5 µM.

Turning to `O=C(c1cc(Cc2n[nH]c(=O)c3ccc(OC4CCC4)cc23)ccc1F)N1CCN(c2cc(C(F)(F)F)ccn2)CC1` [Example 156, 6-cyclobutoxy-4-(4-fluoro-3-(4-(4-(trifluoromethyl)pyridin-2-yl)piperazine-1-carbonyl)benzyl)phthalazin-1(2H)-one], the pIC50 on His-GST-PARP7 was greater than 7.30. In addition, the GI50 is 0.1 to 1 µM in experiment [1] (6 days, CellTiter-Glo); 1 to 5 µM in experiment [2] (6 days, CellTiter-Glo); greater than 5 µM in experiment [3].

In the case of `N#Cc1ccc(N2CCN(C(=O)c3cc(Br)cc(Cc4n[nH]c(=O)c5ccc(OC6CCC6)cc45)c3)CC2)nc1` [Example 178, 6-(4-(3-Bromo-5-((7-cyclobutoxy-4-oxo-3,4-dihydrophthalazin-1-yl)methyl)benzoyl)piperazin-1-yl)nicotinonitrile], the pIC50 at His-GST-PARP7 was greater than 7.30. Besides, the GI50 in experiment [1] (6 days, CellTiter-Glo) was 0.1 to 1 µM; in experiment [2] (6 days, CellTiter-Glo), 1 to 5 µM; in experiment [3], greater than 5 µM.

With `N#Cc1ccc(N2CCN(C(=O)c3cc(Cc4n[nH]c(=O)c5ccc(OC6CCC6)cc45)ccc3F)[C@@H]3C[C@@H]32)nc1` (stereo in doubt) [Example 150, 6-(5-(5-((7-cyclobutoxy-4-oxo-3,4-dihydrophthalazin-1-yl)methyl)-2-fluorobenzoyl)-2,5-diazabicyclo[4.1.0]heptan-2-yl)nicotinonitrile], the pIC50 on His-GST-PARP7 is greater than 7.30. Further, the concentration for 50% growth inhibition (GI50) in experiment [1] (6 days, CellTiter-Glo) lay within 0.1 to 1 µM; in experiment [2] (6 days, CellTiter-Glo) it was 1 to 5 µM; in experiment [3] it was 1 to 5 µM.

For `COc1ccnc(N2CCN(C(=O)c3cc(Cc4n[nH]c(=O)c5ccc(OC6CCC6)cc45)ccc3F)CC2)c1` [Example 128, 6-cyclobutoxy-4-(4-fluoro-3-(4-(4-methoxypyridin-2-yl)piperazine-1-carbonyl)benzyl)phthalazin-1(2H)-one], on His-GST-PARP7, the pIC50 is greater than 7.30. Also, the GI50 lay within 0.1 to 1 µM in experiment [1] (6 days, CellTiter-Glo); 1 to 5 µM in experiment [2] (6 days, CellTiter-Glo); 1 to 5 µM in experiment [3].

`N#Cc1ccc(N2CCN(C(=O)c3cc(Cc4n[nH]c(=O)c5c(C(F)(F)F)cc(OC6CCC6)cc45)ccc3F)CC2)nc1` [Example 93, 6-(4-(5-((7-Cyclobutoxy-4-oxo-5-(trifluoromethyl)-3,4-dihydrophthalazin-1-yl)methyl)-2-fluorobenzoyl)piperazin-1-yl)nicotinonitrile]: the pIC50 on His-GST-PARP7 was greater than 7.30. For the same compound, the GI50 was less than 0.1 µM in experiment [1] (6 days, CellTiter-Glo); 1 to 5 µM in experiment [2] (6 days, CellTiter-Glo); 1 to 5 µM in experiment [3].

For `CC#Cc1ccc2c(=O)[nH]nc(Cc3ccc(F)c(C(=O)N4CCN(c5ccc(C#N)cn5)CC4)c3)c2c1OC` [Example 81, 6-(4-(2-Fluoro-5-((8-methoxy-4-oxo-7-(prop-1-yn-1-yl)-3,4-dihydrophthalazin-1-yl)methyl)benzoyl)piperazin-1-yl)nicotinonitrile], the pIC50 on His-GST-PARP7 is greater than 7.30. Moreover, the GI50 was less than 0.1 µM in experiment [1] (6 days, CellTiter-Glo); 0.1 to 1 µM in experiment [2] (6 days, CellTiter-Glo); less than 0.1 µM in experiment [3].

In the case of `COc1ccc2c(=O)[nH]nc(Cc3cccc(C(=O)N4CCN(c5ccc(C#N)cn5)CC4)c3)c2c1` [Example 4, 6-(4-(3-((7-Methoxy-4-oxo-3,4-dihydrophthalazin-1-yl)methyl)benzoyl)piperazin-1-yl)nicotinonitrile], the pIC50 at His-GST-PARP7 was greater than 7.30. The GI50 in experiment [1] (6 days, CellTiter-Glo) is less than 0.1 µM; in experiment [2] (6 days, CellTiter-Glo) it was 1 to 5 µM; in experiment [3], 0.1 to 1 µM.

Turning to `Cc1cc(C#N)cnc1N1CCN(C(=O)c2cc(Cc3n[nH]c(=O)c4ccc(OC5CCC5)cc34)ccc2F)CC1` [Example 138, 6-(4-(5-((7-cyclobutoxy-4-oxo-3,4-dihydrophthalazin-1-yl)methyl)-2-fluorobenzoyl)piperazin-1-yl)-5-methylnicotinonitrile], at His-GST-PARP7, the pIC50 is greater than 7.30. Also, the GI50 was 0.1 to 1 µM in experiment [1] (6 days, CellTiter-Glo); 1 to 5 µM in experiment [2] (6 days, CellTiter-Glo); greater than 5 µM in experiment [3].

For the compound `C#CCOc1ccc2c(=O)[nH]nc(Cc3ccc(F)c(C(=O)N4CCN(c5ccc(C#N)cn5)CC4)c3)c2c1` [Example 3, 6-(4-(2-fluoro-5-((4-oxo-7-(prop-2-yn-1-yloxy)-3,4-dihydrophthalazin-1-yl)methyl)benzoyl)piperazin-1-yl)nicotinonitrile], the pIC50 at His-GST-PARP7 and on PARP2 (read-out: PARP2 IC50) was greater than 7.30 throughout. The GI50 in experiment [1] was less than 0.1 µM; in experiment [2], 1 to 5 µM.

As for `O=C(c1cc(Cc2n[nH]c(=O)c3ccc(OC4CCC4)cc23)ccc1F)N1CCN(c2ccc(C(F)(F)F)nn2)CC1` [Example 158, 6-cyclobutoxy-4-(4-fluoro-3-(4-(6-(trifluoromethyl)pyridazin-3-yl)piperazine-1-carbonyl)benzyl)phthalazin-1(2H)-one], the pIC50 on His-GST-PARP7 is greater than 7.30. In addition, the GI50 in experiment [1] (6 days, CellTiter-Glo) was 1 to 5 µM; in experiment [2] (6 days, CellTiter-Glo), greater than 5 µM; in experiment [3] it was 1 to 5 µM.

Turning to `O=C(c1cc(Cc2n[nH]c(=O)c3ccc(OC4CCC4)cc23)ccc1F)N1CCN(c2ncc(C(F)F)cn2)CC1` [Example 157, 6-Cyclobutoxy-4-(3-(4-(5-(difluoromethyl)pyrimidin-2-yl)piperazine-1-carbonyl)-4-fluorobenzyl)phthalazin-1(2H)-one], the pIC50 on His-GST-PARP7 is greater than 7.30. Moreover, the GI50 is less than 0.1 µM in experiment [1] (6 days, CellTiter-Glo); 1 to 5 µM in experiment [2] (6 days, CellTiter-Glo); 1 to 5 µM in experiment [3].

Turning to `N#Cc1cnc(N2CCN(C(=O)c3cc(Cc4n[nH]c(=O)c5ccc(OC6CCC6)cc45)ccc3F)CC2)nc1` [Example 154, 2-(4-(5-((7-cyclobutoxy-4-oxo-3,4-dihydrophthalazin-1-yl)methyl)-2-fluorobenzoyl)piperazin-1-yl)pyrimidine-5-carbonitrile], the pIC50 at His-GST-PARP7 was greater than 7.30. Also, the GI50 is less than 0.1 µM in experiment [1] (6 days, CellTiter-Glo); 1 to 5 µM in experiment [2] (6 days, CellTiter-Glo); 1 to 5 µM in experiment [3].

On to `N#Cc1ccc(N2CCN(C(=O)c3cc(Cc4n[nH]c(=O)c5ccc(OC6CCC6)cc45)ccc3F)CC2)nc1C(F)(F)F` [Example 135, 6-(4-(5-((7-cyclobutoxy-4-oxo-3,4-dihydrophthalazin-1-yl)methyl)-2-fluorobenzoyl)piperazin-1-yl)-2-(trifluoromethyl)nicotinonitrile], for which the negative-log IC50 (pIC50) on His-GST-PARP7 was 7.00 to 7.30. Besides, the GI50 was 0.1 to 1 µM in experiment [1] (6 days, CellTiter-Glo); greater than 5 µM in experiment [2] (6 days, CellTiter-Glo); greater than 5 µM in experiment [3].

As for `N#Cc1ccc(N2CCN(C(=O)c3cc(Cc4n[nH]c(=O)c5ccc(OC6CC(F)(F)C6)cc45)ccc3F)CC2)nc1` [Example 51, 6-(4-(5-((7-(3,3-Difluorocyclobutoxy)-4-oxo-3,4-dihydrophthalazin-1-yl)methyl)-2-fluorobenzoyl)piperazin-1-yl)nicotinonitrile], the negative logarithm of the IC50 (pIC50) at His-GST-PARP7 is greater than 7.30. The GI50 was less than 0.1 µM in experiment [1] (6 days, CellTiter-Glo); greater than 5 µM in experiment [2] (6 days, CellTiter-Glo); 1 to 5 µM in experiment [3].

As for `N#Cc1ccc(N2CC3(CN(C(=O)c4cc(Cc5n[nH]c(=O)c6ccc(OC7CCC7)cc56)ccc4F)C3)C2)nc1` [Example 148, 6-(6-(5-((7-cyclobutoxy-4-oxo-3,4-dihydrophthalazin-1-yl)methyl)-2-fluorobenzoyl)-2,6-diazaspiro[3.3]heptan-2-yl)nicotinonitrile], the pIC50 at His-GST-PARP7 is 5.70 to 6.30. The GI50 in experiment [1] (6 days, CellTiter-Glo) was greater than 5 µM; in experiment [2] (6 days, CellTiter-Glo), greater than 5 µM; in experiment [3] it was greater than 5 µM.

For the compound `N#Cc1ccc(N2CCCN(C(=O)c3cc(Cc4n[nH]c(=O)c5ccc(OC6CCC6)cc45)ccc3F)CC2)nc1` [Example 94, 6-(4-(5-((7-Cyclobutoxy-4-oxo-3,4-dihydrophthalazin-1-yl)methyl)-2-fluorobenzoyl)-1,4-diazepan-1-yl)nicotinonitrile], the pIC50 at His-GST-PARP7 was greater than 7.30. Moreover, the GI50 in experiment [1] (6 days, CellTiter-Glo) was less than 0.1 µM; in experiment [2] (6 days, CellTiter-Glo), 1 to 5 µM; in experiment [3], 1 to 5 µM.

For the compound `N#Cc1ccc(N2CCN(C(=O)c3cc(Cc4n[nH]c(=O)c5ccc(OC6CCC6)cc45)ccc3F)CC2)nc1` [Example 14, 6-(4-(5-((7-Cyclobutoxy-4-oxo-3,4-dihydrophthalazin-1-yl)methyl)-2-fluorobenzoyl)piperazin-1-yl)nicotinonitrile], the pIC50 on His-GST-PARP7 is greater than 7.30; on PARP2, 5.70 to 6.30. For the same compound, the figures for the GI50 in experiment [1] and in experiment [2] were less than 0.1 µM and 1 to 5 µM, respectively.

As to `N#Cc1ccc(N2CCN(C(=O)c3cc(Cc4n[nH]c(=O)c5ccc(N6CC7(CC(O)C7)C6)cc45)ccc3F)CC2)nc1` [Example 23, 6-(4-(2-Fluoro-5-((7-(6-hydroxy-2-azaspiro[3.3]heptan-2-yl)-4-oxo-3,4-dihydrophthalazin-1-yl)methyl)benzoyl)piperazin-1-yl)nicotinonitrile], the pIC50 at His-GST-PARP7 was greater than 7.30; at PARP2 (read-out: PARP2 IC50) it was 5.70 to 6.30. For the same compound, the GI50 in experiment [1] (6 days, CellTiter-Glo) was greater than 5 µM.

Consider `N#Cc1ccc(N2CCN(C(=O)c3cc(Cc4n[nH]c(=O)c5ccc(OC6CC6)cc45)ccc3F)CC2)nc1` [Example 13, 6-(4-(5-((7-Cyclopropoxy-4-oxo-3,4-dihydrophthalazin-1-yl)methyl)-2-fluorobenzoyl)piperazin-1-yl)nicotinonitrile], for which the results for the negative logarithm of the IC50 (pIC50) at His-GST-PARP7 and against PARP2 were greater than 7.30 and 6.30 to 7.00, respectively. Besides, the GI50 in experiment [1] is 0.1 to 1 µM.

Consider `CNc1ccc2c(=O)[nH]nc(Cc3ccc(F)c(C(=O)N4CCN(c5ccc(C#N)cn5)CC4)c3)c2c1` [Example 16, 6-(4-(2-fluoro-5-((7-(methylamino)-4-oxo-3,4-dihydrophthalazin-1-yl)methyl)benzoyl)piperazin-1-yl)nicotinonitrile], for which the negative-log IC50 (pIC50) at His-GST-PARP7 and on PARP2 (read-out: PARP2 IC50) was greater than 7.30 throughout. Further, in experiment [1], the GI50 fell in the range of 1 to 5 µM.
